≈ marks a conversion by molar mass, not a printed value. Where two headings read alike, the source gives them in different places.
What was measured:
[1] = target: T1, glucocerebrosidase (Gcase) (Homo sapiens, UniProt P04062); assay: Glucocerebrosidase (Gcase) activation assay with 4-methylumbelliferyl-beta-D-glucopyranoside substrate, saposin C and phosphatidylserine/triton micelles, fluorescence readout; format: biochemical; conditions: for Percent Gcase Activation, 0.1 μM Test Compound: test compound at 0.1 μM; for Percent Gcase Activation, 1 μM Test Compound: test compound at 1.0 μM; for Percent Gease Activation, 0.1 μM Test Compound / Percent Gease Activation, 1 μM Test Compound: Table 4
T1 construct: micellar solution containing 10 nM GCase and 100 nM saposin C
T1 sequence (P04062 40-536): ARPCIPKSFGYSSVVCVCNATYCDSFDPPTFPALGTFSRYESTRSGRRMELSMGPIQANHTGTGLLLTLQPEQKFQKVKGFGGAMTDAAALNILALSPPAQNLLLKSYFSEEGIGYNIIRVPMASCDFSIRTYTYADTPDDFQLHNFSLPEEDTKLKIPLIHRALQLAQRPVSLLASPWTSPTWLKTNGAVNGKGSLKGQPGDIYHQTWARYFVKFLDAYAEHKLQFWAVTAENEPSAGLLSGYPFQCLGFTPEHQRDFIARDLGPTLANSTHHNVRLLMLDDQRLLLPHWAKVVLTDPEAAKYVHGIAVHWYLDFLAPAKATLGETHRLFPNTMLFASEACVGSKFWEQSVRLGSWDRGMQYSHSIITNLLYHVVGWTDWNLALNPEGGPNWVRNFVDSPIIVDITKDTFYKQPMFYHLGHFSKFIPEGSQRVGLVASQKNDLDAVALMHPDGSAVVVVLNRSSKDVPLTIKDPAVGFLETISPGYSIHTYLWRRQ
Method in brief: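 Readout is endpoint fluorescence (ex 365, em 440 nm) after glycine pH 12.5 stop of a 15-min room-temperature reaction. Enzyme mix: GCase 10 nM plus saposin C 100 nM in 0.37 mol % PS/0.32 mM triton micelles, pH 4.7, compound pre-incubated 30 min; substrate solution 2 mM before 1:1 mixing. Tested at 1.0/0.1 μM, then 3-fold, 8-point series up to 5 μM.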

[2] = Compound solubility in water; format: physicochemical

Row | SMILES | Percent Gcase Activation, 0.1 μM Test Compound [1] | Percent Gcase Activation, 1 μM Test Compound [1] | solubility [2] [µg/mL] | Compound Solubility in Water [2] [µg/mL] | Percent Gease Activation, 0.1 μM Test Compound [1] | Percent Gease Activation, 1 μM Test Compound [1] | Compound Solubility in Water ([2]; Table 4) [µg/mL]
1 | Cc1cc(-c2cccc(F)n2)nc2c(C(=O)NC(C3CC3)C(F)(F)F)cnn12 (stereo not drawn) [III-130] | *** (greater than 20% Gcase activation) | +++ (Gcase activation greater than 60%) | 0.2 (≈ 0.508 µM) | – | – | – | –
2 | Cc1cc(-c2ccc3ocnc3c2)nc2c(C(=O)NC(C3CC3)C(F)(F)F)cnn12 (stereo not drawn) [III-171] | *** (greater than 20% Gcase activation) | +++ (Gcase activation greater than 60%) | – | 0.4 | – | – | –
3 | C#Cc1ccc(NC(=O)c2cnn3c(C)cc(C)nc23)cc1 [IV-1] | – | – | – | – | ** (Gcase activation in the range of 10% up to 20%) | ++ (Gcase activation in the range of 30% up to 60%) | <1.5
4 | Cc1cc(C)n2ncc(C(=O)Nc3ccc(N4CCCCC4)cc3)c2n1 [IV-3] | – | – | – | – | * (less than 10% Gcase activation) | + (less than 30% Gcase activation) | <1.5

Source: patent US10934298B2, “Substituted pyrazolo[1,5-a]pyrimidines for the treatment of medical disorders” (BIAL—BioTech Investments, Inc., priority 2016, dated 2021)
